Experimental data: US20240239738A1, “(S)-3-AMINO-4-(DIFLUOROMETHYLENE)CYCLOHEXENE AND CYCLOHEXANE CARBOXYLIC ACID AND USES THEREOF AS SELECTIVE INACTIVATORS OF HUMAN ORNITHINE AMINOTRANSFERASE (hOAT)” (Northwestern University, priority 2021, published 2024)
Like-named read-outs stand apart in the source and are kept apart here. Blank lines part the entries; values can stand above or below the compound they belong to.

What was measured:
[1] = molecular target: T1, hOAT (Homo sapiens, UniProt P04181); assay: Time-dependent dialysis (reactivation) of inhibited hOAT; type: biochemical; settings: hOAT partially or fully inhibited (0.6-2.0 equivalents of 14); up to 91 h of dialysis
T1 construct: made in house
T1 sequence (P04181 with tags, fused parts or gaps): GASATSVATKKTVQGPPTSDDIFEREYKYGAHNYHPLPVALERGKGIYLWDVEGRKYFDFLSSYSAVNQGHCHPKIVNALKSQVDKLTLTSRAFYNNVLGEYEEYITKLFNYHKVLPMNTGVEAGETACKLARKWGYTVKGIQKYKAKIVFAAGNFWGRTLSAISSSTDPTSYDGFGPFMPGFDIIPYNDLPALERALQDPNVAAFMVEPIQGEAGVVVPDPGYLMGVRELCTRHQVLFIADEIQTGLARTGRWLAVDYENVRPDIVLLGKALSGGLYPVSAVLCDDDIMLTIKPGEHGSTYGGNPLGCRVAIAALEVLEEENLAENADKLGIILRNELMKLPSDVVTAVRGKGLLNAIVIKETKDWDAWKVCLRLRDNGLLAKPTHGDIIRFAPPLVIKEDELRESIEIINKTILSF
Protocol: Previously, five-membered ring analogs 5 and 9 were identified as partially irreversible inhibitors of GABA-AT, with the formation of the tight-binding adducts.^29-30 Thus, time-dependent reactivation experiments of hOAT for cyclohexene analog 14 were carried out to determine if similar reversible components were also involved during the inactivation. After hOAT activity was partially or fully abolished by 0.6-2.0 equivalents of 14, aliquots at different time intervals were collected and assayed for the return of enzyme activity.
The dialysis experiment was conducted using previous protocols.^6, 8-9

[2] = in vivo PK profiles; settings: for Cmax: read-out: C0/Cmax; for Kp at 0.25 h: read-out: B/P ratio @0.25 h
[3] = molecular target: T1, hOAT; settings: cited from earlier work
[4] = molecular target: T2, GABA-AT (Sus scrofa, UniProt P80147); assay: Coupled enzyme assay, time-dependent inactivation of GABA-AT; type: biochemical, pig
T2 construct: GABA-AT was isolated from pig brains and purified according to a literature procedure; from tissue; host or cells: pig brain
T2 sequence (P80147 29-500): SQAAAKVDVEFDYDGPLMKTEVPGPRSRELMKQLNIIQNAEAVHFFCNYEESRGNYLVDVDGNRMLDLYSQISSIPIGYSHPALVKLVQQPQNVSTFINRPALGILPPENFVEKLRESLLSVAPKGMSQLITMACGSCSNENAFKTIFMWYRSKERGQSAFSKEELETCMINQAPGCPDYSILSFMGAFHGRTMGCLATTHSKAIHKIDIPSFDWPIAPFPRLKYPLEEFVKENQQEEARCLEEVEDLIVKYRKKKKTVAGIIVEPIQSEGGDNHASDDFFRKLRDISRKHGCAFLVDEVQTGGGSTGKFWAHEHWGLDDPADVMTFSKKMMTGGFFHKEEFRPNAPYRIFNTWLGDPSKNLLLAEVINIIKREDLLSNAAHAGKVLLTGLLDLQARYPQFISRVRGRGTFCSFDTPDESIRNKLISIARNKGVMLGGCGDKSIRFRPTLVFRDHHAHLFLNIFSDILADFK
Protocol: (§1) hOAT and PYCR1 were expressed, grown, and purified according to literature procedures.^3-4 GABA-AT was isolated from pig brains and purified according to a literature procedure.^5 Coupled enzyme assays for GABA-AT, hOAT, Ala-AT, and Asp-AT were carried out according to previous procedures.^6-7

[5] = molecular target: T1, hOAT; assay: Coupled enzyme assay, time-dependent inactivation of hOAT; type: biochemical; settings: for Ki / kinact / kinact/KI: hOAT
Protocol: as §1

[6] = molecular target: T1, hOAT; assay: Fluoride ion release on inactivation of hOAT; type: biochemical; settings: for F^− Release: enzyme 1.34 μM monomer; for Fluoride ions released per active site: excess of inactivator
Excerpt: Different equivalents of fluoride ions can be released in PLP and PMP turnover pathways. If PMP is formed in the turnover mechanism, it cannot be converted back to PLP in the absence of α-KG, which results in at most two equivalents of fluoride ion released (pathway a); more equivalents of fluoride ion would be released in the presence of α-KG if PMP is formed after the fluoride ion release step (pathway a1). If PLP is regenerated during the turnover mechanism, at least two equivalents of fluoride ions will be released in the absence of α-KG (pathway b), which should be close to the equivalents in the presence of α-KG. Based on the partition ratio and the confirmed inactivation mechanism for 14, the theoretical equivalents of fluoride ions, which are released per enzyme active site in different turnover pathways, can be calculated in the presence/absence of α-KG (Table 3). The concentration of released fluoride ions can be monitored by a fluoride ion-selective electrode. When OAT was inactivated with an excess of 14, 2.95 equivalents of fluoride ions were released in the presence of α-KG and 2.66 equivalents of fluoride ions were released in the absence of α-KG (Table 3).
The fluoride ion release assay was conducted using previous protocols.^2 The final concentration of hOAT in the sample was determined to be 61.7±4.1 ug/mL (monomer, 1.34±0.12 μM) via BSA assay and calculation of dilution. A calibration curve of voltage (V, mV) was generated from varying concentrations of NaF (F, μM) to get the equation: F^−=10^((V−181.4)/−54.21). For accurate detection of fluoride ion concentration, 2.0 μM of fluoride ion was added to each control and sample. The number of fluoride ions released per active site was calculated by the ratio of the fluoride ion release concentration and hOAT concentration.

[7] = molecular target: T1, hOAT; assay: Partition ratio by titrating hOAT with inactivator; type: biochemical; settings: turnover number minus one
Excerpt: Usually, the partition ratio is used to determine the ratio of degradation and inactivation, calculated by titrating the enzyme with varying equivalents of inactivator. Ideally, a linear relationship (between enzyme activity remaining and equivalents of compounds) can be extrapolated to yield the exact equivalents (the intercept with the x-axis, turnover number) required to inactivate the enzyme completely. Since this obtained number includes the one molecule of inactivator required to inactivate one enzyme monomer, the partition ratio is the turnover number minus one. Therefore, the partition ratios of 5 and 14 were determined by titrating hOAT with varying equivalents of inactivators (FIG. 21). From this, we determined the partition ratio of 5 to be 4.9 and the partition ratio of 14 to be 0.6. The enlarged ring not only enhances the potency and selectivity against hOAT but also improves the efficiency of the inactivation.
The partition ratio was calculated using previous protocols.^6, 8-9

[8] = system: aspartate aminotransferase (Asp-AT); assay: Coupled enzyme assay, inhibition of Asp-AT; type: biochemical; settings: at high concentrations, up to 20 mM
Protocol: as §1

[9] = system: alanine aminotransferase (Ala-AT); assay: Coupled enzyme assay, inhibition of Ala-AT; type: biochemical; settings: at high concentrations, up to 20 mM
Protocol: as §1

[10] = values marked b from the slope of kobs vs [I], read-out: kinact/KI (converted)

Structure (SMILES): N[C@H]1C[C@@H](C(=O)O)CC1=C(F)F [Compound 5, reference compound]
return of enzyme activity on dialysis [1]: fully irreversible inhibitor

Structure (SMILES): N[C@H]1C=C(C(=O)O)CC1=C(F)F [Compound 9, reference compound]
AUCinf ([2]; IV, 3 mg/kg): 653.80 ng·h/mL
AUClast ([2]; IV, 3 mg/kg): 634.12 ng·h/mL
C0/Cmax ([2]; IV, 3 mg/kg): 2376.08 ng/mL
CL ([2]; IV, 3 mg/kg): 76.48 mL/min/kg
T1/2 ([2]; IV, 3 mg/kg): 30.6 min
VSS ([2]; IV, 3 mg/kg): 1.75 L/kg
% F ([2]; PO, 10 mg/kg): 42%
AUCinf ([2]; PO, 10 mg/kg): 1006.60 ng·h/mL
AUClast ([2]; PO, 10 mg/kg): 881.20 ng·h/mL
C0/Cmax ([2]; PO, 10 mg/kg): 1575.74 ng/mL
Tmax ([2]; PO, 10 mg/kg): 15 min
kinact/KI ([3]; from ref 29): 127 M⁻¹ s⁻¹
Ki ([3]; from ref 40): 65 ± 10 µM
kinact/KI ([3]; from ref 40): 14.5 M⁻¹ s⁻¹

Results, then the compound that gave them:

Ki [4]: 1310 ± 400 µM
kinact [4]: 0.000417 s⁻¹
kinact/KI [4, 10]: 0.317 M⁻¹ s⁻¹
Ki [5]: 1270 ± 200 µM
kinact [5]: 0.00193 s⁻¹
kinact/KI [5]: 1.52 M⁻¹ s⁻¹
Structure (SMILES): N[C@H]1C[C@@H](C(=O)O)CCC1=C(F)F [Compound 12, (1S,3S)-3-amino-4-(difluoromethylene)cyclohexane-1-carboxylic acid]

Ki [4]: > 13100 µM
kinact [4]: > 0.00317 s⁻¹
kinact/KI [4, 10]: 0.25 M⁻¹ s⁻¹
Ki [5]: 1480 ± 210 µM
kinact [5]: 0.0015 s⁻¹
kinact/KI [5]: 1.07 M⁻¹ s⁻¹
Structure (SMILES): N[C@H]1C[C@H](C(=O)O)CCC1=C(F)F [Compound 13, (1R,3S)-3-Amino-4-(difluoromethylene)cyclohexane-1-carboxylic acid]

AUC(0-inf) ([2]; in vivo, iv, 10 mg/kg): 2490 ng·h/mL
AUC(0-t) ([2]; in vivo, iv, 10 mg/kg): 2470 ng·h/mL
clearance ([2]; in vivo, iv, 10 mg/kg): 66.9 mL/min/kg
half-life ([2]; in vivo, iv, 10 mg/kg): 9.6 min
Cmax ([2]; in vivo, iv, 10 mg/kg): 14800 ng/mL
Vd ([2]; in vivo, iv, 10 mg/kg, read-out: VSS): 0.64 L/kg
AUC(0-inf) ([2]; in vivo, po, 30 mg/kg): 4330 ng·h/mL
AUC(0-t) ([2]; in vivo, po, 30 mg/kg): 4260 ng·h/mL
bioavailability ([2]; in vivo, po, 30 mg/kg): 58%
Cmax ([2]; in vivo, po, 30 mg/kg): 3430 ng/mL
Tmax ([2]; in vivo, po, 30 mg/kg, read-out: Tmax): 15 min
Kp at 0.25 h ([2]; in vivo, IV, 10 mg/kg): 0.05
Kp at 0.25 h ([2]; in vivo, PO, 30 mg/kg): 0.01
DMPK properties ([2]; preliminary assessment): favorable DMPK properties
Ki [4]: > 1240 µM
kinact [4]: > 0.006 s⁻¹
kinact/KI ([4]; read-out: kinact/KI (converted)): 4.83 M⁻¹ s⁻¹
kinact/KI ([4]; values marked b from the slope of kobs vs [I]): 0.29 ± 0.01^b mM^−1min^−1
F^− Release ([6]; with α-KG): 3.95 µM
Fluoride ions released per active site ([6]; with α-KG): 2.95 equiv
F^− Release ([6]; without α-KG): 3.57 µM
Fluoride ions released per active site ([6]; without α-KG): 2.66 equiv
return of enzyme activity on dialysis [1]: no enzyme activity recovered
partition ratio [7]: 0.6
Ki [5]: 12 ± 2 µM
kinact [5]: 0.00323 s⁻¹
kinact/KI [5]: 270 M⁻¹ s⁻¹
times more efficient/potent as an inactivator of hOAT than the comparator ([5]; versus 10 (b129 prints 7), by kinact/KI): 18.6
inhibitory activities against Asp-AT [8]: little or no inhibitory activities
inhibitory activities against Ala-AT [9]: little or no inhibitory activities
Structure (SMILES): N[C@H]1C=C(C(=O)O)CCC1=C(F)F [Compound 14, (S)-3-Amino-4-(difluoromethylene)cyclohex-1-ene-1-carboxylic acid]

Ki [4]: > 2490 µM
kinact [4]: > 0.00367 s⁻¹
kinact/KI [4, 10]: 1.45 M⁻¹ s⁻¹
Ki [5]: 98 ± 14 µM
kinact [5]: 0.0009 s⁻¹
kinact/KI [5]: 9.17 M⁻¹ s⁻¹
Structure (SMILES): N[C@H]1CC(C(=O)O)=CCC1=C(F)F [Compound 15, (S)-5-Amino-4-(difluoromethylene)cyclohex-1-ene-1-carboxylic acid]
